Values quoted from earlier work in article PMC5516987, “Safety and pharmacodynamics of dalazatide, a Kv1.3 channel inhibitor, in the treatment of plaque psoriasis: A randomized phase 1b trial” (PLoS ONE, 2017).

Experiments:
[1] = 4-AP and related compounds
Source text: One potassium channel blocking drug that has been tested in humans is the nonselective potassium channel inhibitor, 4-aminopyridine (4-AP, fampridine, dalfampridine). Various formulations of 4-AP have been evaluated for their potential to increase nerve conduction and improve function in spinal cord injury, autoimmune diseases involving the nervous system, and diseases of nerve conduction. The most commonly reported adverse events are paresthesia (perioral and digital), nausea, dizziness, headache, and insomnia. Although infrequent, the most serious toxicity reported in patients treated ...

[2] = test system: viral and bacterial infections; details: chronically treated animals, versus vehicle
Source text: Dalazatide (previously referred to as ShK-186 and SL5) is a 37-amino acid synthetic peptide that is a specific inhibitor of the voltage-gated Kv1.3 potassium channel. It is a derivative of ShK, which was originally isolated from the venom of the sea anemone Stichodactyla helianthus. Human T cells rely on two potassium channels, Kv1.3 and KCa3.1 to maintain the calcium signaling required for their activation and differentiation, by maintaining a balance between calcium influx and potassium efflux. Chronically activated memory T cells that rely on upregulation of Kv1.3 expression for ...

SMILES: Nc1ccncc1 [4-AP, 4-aminopyridine]
- Crossing of the blood-brain barrier [1]: readily cross the blood-brain barrier

SMILES: C[C@@H]1C[C@H]2[C@@H]3CCC4=CC(=O)C=C[C@]4(C)[C@@]3(F)[C@@H](O)C[C@]2(C)[C@@]1(O)C(=O)CO [dexamethasone]
- Clearance of viral and bacterial infections [2]: significantly delayed clearance rate
